# Measurements from patent US20250188078A1, “SMALL MOLECULE INHIBITORS OF THE CRL4 UBIQUITIN LIGASE” (Cornell University, priority 2022, published 2025).
# Assays:
# [1] = Dynamic light scattering (DLS) solubility assay; format: physicochemical; conditions: normalized intensity ratio of 25 μM compound vs DMSO, in PBS
# Protocol: Dynamic light scattering (DLS) (see Table 1, column 3) is a tool for studying the diffusion behavior of macromolecules in solution. To profile compound solubility, DLS assay was developed for measuring aggregation of small molecule compounds. Compound stock solution was prepared in DMSO. Dilution series were made for each compound in DMSO to ensure a final 1× assay concentration range of 200 μM to 0.78 μM. For example, if the final DMSO concentration was 1%, compounds were prepared at 100× concentrations ranging from […] to 78 μM. Dilute compounds in PBS solution to final concentration. Place 60 μl/well in 96 well plates and 3 replicates for each sample. Data were collected using a DynaPro Plate Reader III (WYATT Technologies, Inc., USA). The instrument was adjusted to measure the optimal light scattering intensity according to the manufacturer's instructions. […] The ratio over 2 means (−) insoluble. The ratio below 2 means (+) soluble and around 2 means (+/−).
# [2] = target: CUL4A-DDB1-BPB interaction (Homo sapiens (Human), UniProt Q16531); assay: AlphaLISA in vitro binding assay, CUL4A and DDB1-BPB binding; conditions: inhibition of CUL4A and DDB1-BPB binding
# Excerpt: AlphaLISA IC50 (see Table 1, column 4) means the half maximal inhibitory concentration of compound that inhibits CUL4A and DDB1-BPB binding. Our lab established and optimized 384 well-based AlphaLISA in vitro binding assay for testing small molecule inhibitory activity. Small molecule libraries were screened for compounds that disrupt CUL4A-DDB1-BPB interaction using AlphaScreen detection beads (PerkinElmer, #AL112C and #6765300) following the manufacturer's protocol (https://www.perkinelmer.com/PDFs/downloads/GDE-Alphatech.pdf, hereby incorporated by reference in its entirety for all purposes). The 384-well assay plates (Greiner Bio-one, #781075) were read in Synergy Neo2 Hybrid Multi-Mode Reader (BioTek). The IC50 was calculated by Prism 8 XY analysis nonlinear regression (curve fit-Log(inhibitor) vs response).
# [3] = tested on: UV-induced CUL4-dependent DDB2 degradation in MEF-F-DDB2 cells; assay: Cell-based assay for inhibition of UV-induced CUL4-dependent DDB2 degradation; parameters: key: (+) means that the normalized DDB2/α-tubulin ratio is higher in the compound treated sample than DMSO treated sample; (−) means that no change happens between compound treated sample with control sample; conditions: DDB2/α-tubulin by Western blot
# Protocol: Cell-based assay for inhibition of UV-induced CUL4-dependent DDB2 degradation by small molecule CUL4 inhibitors (see Table 1, column 5). Briefly, MEF-F-DDB2 cells were seeded in 6-well plates. DMSO or indicated concentrations of compounds were added to MEF-F-DDB2 cells growing in serum-free medium. MEF-F-DDB2 cells were washed once with PBS and subsequently irradiated with a Philips TUV lamp (predominantly 254 nm) at a dose rate of 0.2 W/m^2. DMSO or compounds were added to MEF-F-DDB2 cells, and then cells were harvested. The cells were lysed, and equal amounts of proteins were resolved on SDS-PAGE gel and Flag-DDB2 levels were detected using anti-DDB2 (D4C4) rabbit antibody (Cell signaling, #5416S). α-tubulin (Proteintech, #66031-1-Ig) was used as an internal loading control. (+) means that the normalized DDB2/α-tubulin ratio is higher in the compound treated sample than DMSO treated sample. (−) means that no change happens between compound treated sample with control sample.
# [4] = tested on: CUL4A^high MDA-MB-468 breast cancer cells; assay: Cell killing in CUL4-high MDA-MB-468 cells (CellTiter Glo); format: cell-based; conditions: Homo sapiens, 192 h; MDA-MB-468 cells, 8 days treatment; read-out: EC50 CUL4-High Cells (cell killing)
# Protocol: EC50 refers to concentration of compound that induces 50% killing of CUL4A^high MDA-MB-468 cells (see Table 1, column 6). CUL4A^high MDA-MB-468 breast cancer cells were seeded in 96 well plates. After 24 hours, cells were treated with DMSO or compounds. Change fresh medium and compounds. After 8 days treatment, cell viability was examined by using CellTiter Glo kit (Promega #7570) following the manufacturer's guidelines (https://www.promega.com/-/media/files/resources/protocols/technicalbulletins/0/celltiter-glo-luminescent-cell-viability-assay protocol.pdf?rev=0d95c232094b41daa06d0c110d1d916f&sc_lang=en, hereby incorporated by reference in its entirety for all purposes). EC50 concentration was calculated by Prism 8 XY analysis nonlinear regression (curve fit-Log(inhibitor) vs response). Lower EC50 indicates high cell killing potential in CUL4^high MDA-MB-468 cells.
# CUL4A^high MDA-MB-468, CUL4^low (T47D), and MCF7 breast cancer cells were seeded in 96 well plates separately. Cells were treated with DMSO, or from 0 to 20 μM compound respectively. Replace with fresh medium and compounds every 48 hours. After 8 days treatment, cell viability was examined by CellTiter Glo kit (Promega #7570). First, transfer the appropriate volume (10 ml for Cat. #G7570) of CellTiter-Glo® Buffer into the amber bottle containing CellTiter-Glo® Substrate to reconstitute the lyophilized enzyme/substrate mixture. This forms the CellTiter-Glo® Reagent. Second, add CellTiter-Glo® Reagent in an equal volume (100 μl per well for 96-well plates) to all wells. Mix contents for 2 minutes on an orbital shaker to induce cell lysis. Incubate at room temperature for 15 minutes to stabilize luminescent signal. Then record luminescence. EC50 concentration was calculated by Prism 8 XY analysis nonlinear regression (curve fit-Log(inhibitor) vs response).
# Sequence of CUL4A-DDB1-BPB interaction (Q16531 403-706): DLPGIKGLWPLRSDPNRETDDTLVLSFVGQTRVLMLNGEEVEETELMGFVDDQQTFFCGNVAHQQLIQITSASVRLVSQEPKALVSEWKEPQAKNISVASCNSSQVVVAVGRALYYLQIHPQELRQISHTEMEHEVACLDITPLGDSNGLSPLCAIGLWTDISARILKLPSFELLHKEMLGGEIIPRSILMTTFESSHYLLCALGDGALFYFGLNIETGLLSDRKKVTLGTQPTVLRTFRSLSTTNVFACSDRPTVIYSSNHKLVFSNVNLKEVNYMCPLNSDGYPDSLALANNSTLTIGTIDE
Solubility (DLS Assay) [1],IC50 [2] [nM],AlphaLisa IC50 [2],Compound,Degradation Inhibition (inhibition of UV-induced DDB2 degradation) [3],EC50 [4] [nM]
-(insoluble),3430 ± 1570,,Cc1ccc(-c2nc(C(=O)O)cc3c2[nH]c2ccccc23)cc1 [PA2],+,
+/−,1410 ± 310,,O=C(O)c1cc2c([nH]c3ccccc32)c(-c2ccc(F)cc2)n1 [PA3],+,
-(insoluble),360 ± 40,,CS(=O)(=O)c1ccc(-c2nc(C(=O)O)cc3c2[nH]c2ccc(F)cc23)cc1 [PA71],−,
-(insoluble),10200 ± 3330,,Cc1cccc(-c2nc(C(=O)O)cc3c2[nH]c2ccccc23)c1 [PA7],,
-(insoluble),,Neg,"NC(=O)c1cc2c([nH]c3ccccc32)c(-c2ccc([N+](=O)[O-])cc2)n1 [PA9, 1-(4-nitrophenyl)-9H-pyrido[3,4-b]indole-3-carboxamide]",+,
-(insoluble),1830 ± 90,,COc1ccc2[nH]c3c(-c4ccc(S(C)(=O)=O)cc4)nc(C(=O)O)cc3c2c1 [PA74],+,
-(insoluble),2010 ± 440,,N#Cc1ccc(-c2nc(C(=O)O)cc3c2[nH]c2ccccc23)cc1 [PA19],+,
-(insoluble),2340 ± 770,,O=C(O)c1cc2c([nH]c3ccccc32)c(-c2cccc(F)c2)n1 [PA5],,

# The next lines start with the compound.
Compound,Solubility (DLS Assay) [1],IC50 [2] [nM],AlphaLisa IC50 [2],Degradation Inhibition (inhibition of UV-induced DDB2 degradation) [3],EC50 [4] [nM]
"CN(c1ccc(-c2nc(C(=O)O)cc3c2[nH]c2cc(F)ccc23)c(F)c1)S(=O)(=O)c1ccccc1 [PA1-12, 1-[4-[benzenesulfonyl(methyl)amino]-2-fluoro-phenyl]-7-fluoro-9H-pyrido[3,4-b]indole-3-carboxylic acid]",-(insoluble),750,,+,7370
O=C(O)c1cc2c([nH]c3ccccc32)c(-c2cc(F)c(F)c(F)c2)n1 [PA33],-(insoluble),2000 ± 380,,,
"CN(c1ccc(-c2nc(C(=O)O)cc3c2[nH]c2cc(F)c(F)cc23)cc1)S(=O)(=O)c1ccccc1 [PA1-7, 6,7-difluoro-1-(4-(N-methylphenylsulfonamido)phenyl)-9H-pyrido[3,4-b]indole-3-carboxylic acid]",-(insoluble),127,,,8650
"CN1CCN(S(=O)(=O)N(C)c2ccc(-c3nc(C(=O)O)cc4c3[nH]c3cc(F)ccc34)cc2)CC1 [PA1-13A-3, 1-(4-(N,4-dimethylpiperazine-1-sulfonamido)phenyl)-7-fluoro-9H-pyrido[3,4-b]indole-3-carboxylic acid]",-(insoluble),450,,−,7250
"COC(=O)c1cc2c([nH]c3cc(C#N)ccc32)c(-c2ccc(N(C)S(=O)(=O)c3ccccc3)cc2)n1 [PA1-9 ESTER, methyl 7-cyano-1-(4-(N-methylphenylsulfonamido)phenyl)-9H-pyrido[3,4-b]indole-3-carboxylate]",-(insoluble),,Neg,,
"COC(=O)c1cc2c([nH]c3cc(F)cc(C)c32)c(-c2ccc(N(C)S(=O)(=O)c3ccccc3)cc2)n1 [PA1-14 ESTER, methyl 1-[4-[benzenesulfonyl(methyl)amino]phenyl]-7-fluoro-5-methyl-9H-pyrido[3,4-b]indole-3-carboxylate]",-(insoluble),,Neg,−,
"O=C(O)c1cc2c([nH]c3cc(F)ccc32)c(-c2ccc(OCc3ccccn3)cc2)n1 [PA1-11H, 7-fluoro-1-(4-(pyridin-2-ylmethoxy)phenyl)-9H-pyrido[3,4-b]indole-3-carboxylic acid]",-(insoluble),,,−,
